Data taken from PubChem BioAssay (NCI).
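Test compounds were applied to cells in 96-well plates for 48 hours at 5 doses. GI50: concentration for 50% inhibition of growth. TGI is the concentration that stops growth completely.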

Key:
Test in all cases: inhibition of tumour cell growth, NCI panel, 48 h
MDA-MB-231 breast = system: MDA-MB-231 breast
HCT-116 colon = system: HCT-116 colon
MCF7 breast = system: MCF7 breast
IGROV1 ovarian = system: IGROV1 ovarian
COLO 205 colon = system: COLO 205 colon
HCC-2998 colon = system: HCC-2998 colon
HCT-15 colon = system: HCT-15 colon
OVCAR-3 ovarian = system: OVCAR-3 ovarian
NCI-H522 lung = system: NCI-H522 lung
KM12 colon = system: KM12 colon
A498 renal = system: A498 renal
MALME-3M melanoma = system: MALME-3M melanoma
T-47D breast = system: T-47D breast
NCI/ADR-RES ovarian = system: NCI/ADR-RES ovarian
MDA-MB-435 = system: MDA-MB-435
NCI-H460 lung = system: NCI-H460 lung
HOP-62 NSCLC = system: HOP-62 NSCLC
HT29 colon = system: HT29 colon
U251 CNS = system: U251 CNS
OVCAR-5 ovarian = system: OVCAR-5 ovarian
EKVX NSCLC = system: EKVX NSCLC
RXF 393 renal = system: RXF 393 renal
SK-MEL-28 melanoma = system: SK-MEL-28 melanoma
DU-145 prostate = system: DU-145 prostate
PC-3 prostate = system: PC-3 prostate
M14 melanoma = system: M14 melanoma
K-562 leukemia = system: K-562 leukemia
RPMI-8226 leukemia = system: RPMI-8226 leukemia
MOLT-4 leukemia = system: MOLT-4 leukemia
LOX IMVI melanoma = system: LOX IMVI melanoma
HOP-92 NSCLC = system: HOP-92 NSCLC
SK-MEL-5 melanoma = system: SK-MEL-5 melanoma
UACC-62 melanoma = system: UACC-62 melanoma
NCI-H226 lung = system: NCI-H226 lung
CCRF-CEM leukemia = system: CCRF-CEM leukemia
SF-268 CNS = system: SF-268 CNS
SNB-19 CNS = system: SNB-19 CNS
TK-10 renal = system: TK-10 renal
SW-620 colon = system: SW-620 colon
SR leukemia = system: SR leukemia
OVCAR-8 ovarian = system: OVCAR-8 ovarian
UACC-257 melanoma = system: UACC-257 melanoma
NCI-H23 lung = system: NCI-H23 lung
SF-539 CNS = system: SF-539 CNS
OVCAR-4 ovarian = system: OVCAR-4 ovarian
786-0 renal = system: 786-0 renal
CAKI-1 renal = system: CAKI-1 renal
A549 NSCLC = system: A549 NSCLC
HL-60(TB) leukemia = system: HL-60(TB) leukemia
HS 578T breast = system: HS 578T breast
SK-OV-3 ovarian = system: SK-OV-3 ovarian
UO-31 renal = system: UO-31 renal
SK-MEL-2 melanoma = system: SK-MEL-2 melanoma
SN12C renal = system: SN12C renal
SNB-75 CNS = system: SNB-75 CNS
SF-295 CNS = system: SF-295 CNS
BT-549 breast = system: BT-549 breast
ACHN renal = system: ACHN renal

## CS(=O)(=O)Nc1cc(-c2ccc3ncnc(Nc4ccc5c(cnn5Cc5cccc(F)c5)c4)c3c2)cnc1Cl
MDA-MB-231 breast
  GI50: 0.586 µM
  TGI: 13.2 µM
HCT-116 colon
  GI50: 0.48 µM
  TGI: 1.84 µM
MCF7 breast
  GI50: 0.201 µM
  TGI: 1.65 µM
IGROV1 ovarian
  GI50: 0.17 µM
  TGI: 0.733 µM
COLO 205 colon
  GI50: 0.759 µM
  TGI: 2.96 µM
HCC-2998 colon
  GI50: 0.829 µM
  TGI: 2.55 µM
HCT-15 colon
  GI50: 1.11 µM
  TGI: 8.01 µM
OVCAR-3 ovarian
  GI50: 0.293 µM
  TGI: 1.89 µM
NCI-H522 lung
  GI50: 0.381 µM
  TGI: 2.74 µM
KM12 colon
  GI50: 1.14 µM
  TGI: 4.25 µM
A498 renal
  GI50: 0.0717 µM
  TGI: 0.535 µM
MALME-3M melanoma
  GI50: 0.201 µM
  TGI: 1.3 µM
T-47D breast
  GI50: 0.101 µM
  TGI: 0.922 µM
NCI/ADR-RES ovarian
  GI50: 5.8 µM
  TGI: > 78.4 µM
MDA-MB-435
  GI50: 0.628 µM
  TGI: 2.3 µM
NCI-H460 lung
  GI50: 0.929 µM
  TGI: 9.45 µM
HOP-62 NSCLC
  GI50: 0.452 µM
  TGI: 7.95 µM
HT29 colon
  GI50: 0.597 µM
  TGI: 5.42 µM
U251 CNS
  GI50: 0.419 µM
  TGI: 3.17 µM
OVCAR-5 ovarian
  GI50: 0.608 µM
  TGI: 7.3 µM
EKVX NSCLC
  GI50: 0.479 µM
  TGI: 4.7 µM
RXF 393 renal
  GI50: 0.294 µM
  TGI: 1.45 µM
SK-MEL-28 melanoma
  GI50: 0.316 µM
  TGI: 1.86 µM
DU-145 prostate
  GI50: 0.756 µM
  TGI: 11.2 µM
PC-3 prostate
  GI50: 0.411 µM
  TGI: 2.6 µM
M14 melanoma
  GI50: 0.745 µM
  TGI: 2.5 µM
K-562 leukemia
  GI50: 0.913 µM
  TGI: > 100 µM
RPMI-8226 leukemia
  GI50: 0.396 µM
  TGI: 2.05 µM
MOLT-4 leukemia
  GI50: 0.318 µM
  TGI: 3.38 µM
LOX IMVI melanoma
  GI50: 0.4 µM
  TGI: 1.9 µM
HOP-92 NSCLC
  GI50: 0.0562 µM
  TGI: 0.46 µM
SK-MEL-5 melanoma
  GI50: 0.397 µM
  TGI: 1.44 µM
UACC-62 melanoma
  GI50: 0.324 µM
  TGI: 1.69 µM
NCI-H226 lung
  GI50: 1.11 µM
  TGI: 4.84 µM
CCRF-CEM leukemia
  GI50: 0.301 µM
  TGI: > 100 µM
SF-268 CNS
  GI50: 0.256 µM
  TGI: 2.07 µM
SNB-19 CNS
  GI50: 0.575 µM
  TGI: 3.65 µM
TK-10 renal
  GI50: 0.277 µM
  TGI: 2.19 µM
SW-620 colon
  GI50: 0.676 µM
  TGI: 6.61 µM
SR leukemia
  GI50: 0.507 µM
  TGI: > 100 µM
OVCAR-8 ovarian
  GI50: 1.57 µM
  TGI: > 100 µM
UACC-257 melanoma
  GI50: 0.812 µM
  TGI: 4.47 µM
NCI-H23 lung
  GI50: 0.648 µM
  TGI: 6.28 µM
SF-539 CNS
  GI50: 0.361 µM
  TGI: 1.75 µM
OVCAR-4 ovarian
  GI50: 1.38 µM
  TGI: 6.51 µM
786-0 renal
  GI50: 0.456 µM
  TGI: 5.41 µM
CAKI-1 renal
  GI50: 0.359 µM
  TGI: 2.48 µM
A549 NSCLC
  GI50: 1.56 µM
  TGI: 5.79 µM
HL-60(TB) leukemia
  GI50: 0.283 µM
  TGI: 1.98 µM
HS 578T breast
  GI50: 0.111 µM
  TGI: 0.878 µM
SK-OV-3 ovarian
  GI50: 0.376 µM
  TGI: 2.27 µM
UO-31 renal
  GI50: 1.04 µM
  TGI: 3.96 µM
SK-MEL-2 melanoma
  GI50: 0.275 µM
  TGI: 1.21 µM
SN12C renal
  GI50: 0.421 µM
  TGI: 18.9 µM
SNB-75 CNS
  GI50: 0.0321 µM
  TGI: 0.457 µM
SF-295 CNS
  GI50: 0.811 µM
  TGI: 3 µM
BT-549 breast
  GI50: 0.227 µM
  TGI: 1.05 µM
ACHN renal
  GI50: 1.63 µM
  TGI: 15.4 µM

## CC(=O)C(C)CCOC1(C)OCCC1C (centres undefined)
MDA-MB-231 breast
  TGI: > 100 µM
HCT-116 colon
  TGI: > 100 µM
MCF7 breast
  TGI: > 100 µM
IGROV1 ovarian
  TGI: > 100 µM
COLO 205 colon
  TGI: > 100 µM
HCC-2998 colon
  TGI: > 100 µM
HCT-15 colon
  TGI: > 100 µM
OVCAR-3 ovarian
  TGI: > 100 µM
NCI-H522 lung
  TGI: > 100 µM
KM12 colon
  TGI: > 100 µM
A498 renal
  TGI: > 100 µM
MALME-3M melanoma
  TGI: > 100 µM
T-47D breast
  TGI: > 100 µM
NCI/ADR-RES ovarian
  TGI: > 100 µM
MDA-MB-435
  TGI: > 100 µM
NCI-H460 lung
  TGI: > 100 µM
HOP-62 NSCLC
  TGI: > 100 µM
HT29 colon
  TGI: > 100 µM
U251 CNS
  TGI: > 100 µM
OVCAR-5 ovarian
  TGI: > 100 µM
EKVX NSCLC
  TGI: > 100 µM
RXF 393 renal
  TGI: > 100 µM
SK-MEL-28 melanoma
  TGI: > 100 µM
DU-145 prostate
  TGI: > 100 µM
PC-3 prostate
  TGI: > 100 µM
M14 melanoma
  TGI: > 100 µM
K-562 leukemia
  TGI: > 100 µM
RPMI-8226 leukemia
  TGI: > 100 µM
MOLT-4 leukemia
  TGI: > 100 µM
LOX IMVI melanoma
  TGI: > 100 µM
HOP-92 NSCLC
  TGI: > 100 µM
SK-MEL-5 melanoma
  TGI: > 100 µM
UACC-62 melanoma
  TGI: > 100 µM
NCI-H226 lung
  TGI: > 100 µM
CCRF-CEM leukemia
  TGI: > 100 µM
SF-268 CNS
  TGI: > 100 µM
SNB-19 CNS
  TGI: > 100 µM
TK-10 renal
  TGI: > 100 µM
SW-620 colon
  TGI: > 100 µM
SR leukemia
  TGI: > 100 µM
OVCAR-8 ovarian
  TGI: > 100 µM
UACC-257 melanoma
  TGI: > 100 µM
NCI-H23 lung
  TGI: > 100 µM
SF-539 CNS
  TGI: > 100 µM
OVCAR-4 ovarian
  TGI: > 100 µM
786-0 renal
  TGI: > 100 µM
CAKI-1 renal
  TGI: > 100 µM
A549 NSCLC
  TGI: > 100 µM
HL-60(TB) leukemia
  TGI: > 100 µM
HS 578T breast
  TGI: > 100 µM
SK-OV-3 ovarian
  TGI: > 100 µM
UO-31 renal
  TGI: > 100 µM
SK-MEL-2 melanoma
  TGI: > 100 µM
SN12C renal
  TGI: > 100 µM
SNB-75 CNS
  TGI: > 100 µM
SF-295 CNS
  TGI: > 100 µM
BT-549 breast
  TGI: > 100 µM
ACHN renal
  TGI: > 100 µM
